Data as given in patent publication US20240067931A1, “METHODS AND COMPOSITIONS FOR SMALL MOLECULE BASED PANCREATIC BETA CELL INDUCTION” (Trailhead Biosystems Inc., priority 2022, published 2024).
“Also recorded” adds a separate entry of the source. Peptide text beside a SMILES is read from it.

Assays:
Assay type in all cases: cell-based, human
[1] = test system: PDX1; assay: HD-DoE perturbation matrix on DFE culture, modelling for maximal PDX1 induction; details: DFE culture, HD-DoE, FIG. 11
Description: FIG. 11 Modelling for maximal PDX1 induction. Cultures of the iPSC cell line Cr01 was differentiated to a DFE state and then subjected to an HD-DoE perturbation matrix composed of the compounds indicated in the figure. MODDE software was used to predict the optimal condition for maximizing PDX1 activation. Predicted factor additives for this optimization and the relative expression under these conditions for the genes measured are shown.
FIG. 12 Coefficient plots show main effectors for pancreatic progenitor generation from a DFE precursor. Coefficients for the HD-DoE design shown in Example 9 are shown for PDX1 and PTF1A. The co-expression of these two genes is indicative of a pancreatic field.
To determine the best way for inducing a pancreatic fate from a DFE progenitor, a subsequent HD-DoE analysis was performed. Exposing a DFE culture to a perturbation matrix composed of all previously identified effectors shown to have a positive effect on PDX1 activation was used to define optimal conditions for PDX1 induction.

[2] = test system: GCG, SST, PDX1, PAX4, MAFA and NKX2.2; assay: HD-DoE stage 3 screening, heat map and dynamic profiling of endocrine and beta cell genes; details: for effect on beta cell specific transcription factors / all genes optimized: heat maps FIG. 19 and FIG. 21; for effect on beta cell state / endocrine fate: heat map FIG. 21, dynamic profiling FIGS. 22-25
Description: (§1) FIG. 19 Heat map showing descending factor contributions for the induction of INS. The three HD-DoE experiments shown in Example 17 were used for modeling the maximal expression of several other genes, including GCG, SST, PDX1, PAX4, MAFA and NKX2.2, which are indicative of endocrine cell types with a focus on pancreatic beta cells as indicated at the top of the heat map. The relative factor contributions for the activation of these different genes were then used to generate a secondary heat map representative of the gene induction logic and then ranked according to the compound's ability to induce INS. Dark blue colors indicate a high inductive capacity, while dark red colors indicative of a highly repressive capacity for activation of the genes are shown.
(§2) FIG. 21 Heat map showing descending factor contributions for the induction of INS. The four HD-DoE experiments shown in Example 19 were used for modeling the maximal expression of several other genes. These genes were GCG, SST, PDX1, PAX4, MAFA and NKX2.2. These genes are all indicative of endocrine cell types with a focus on the beta cell as indicated at the top of the heatmap. The relative factor contribution for the activation of these different genes were then used to generate a secondary heat map representative of these genes induction logic and then ranked order according to the compounds ability to induce INS. Dark blue indicates high inductive capacity, while dark red is indicative of a highly repressive effect for the activation of the genes shown.
(§3) FIGS. 22-25. Dynamic profiling of endocrine sub-type regulation. One of the HD-DoE experiments shown in Example 19 was analyzed using MODDE software and dynamic profiling of the endocrine products GCG, SST and INS are shown.
To ascertain which factors could potentially favor the beta cell over other endocrine cell types, optimizers for markers of the other endocrine cell types and beta cell specific markers were compared. The relative factor contribution from the different optimizers were compared.
Optimizers for the main pancreatic endocrine hormones and beta cell-specific transcription factors were generated to compare their contribution factors for this series of HD-DoE. Compounds that could selectively favor the differentiation of the beta cell over that of the alpha and delta cells were identified in this manner.

[3] = test system: INS; assay: HD-DoE screening for optimal de novo beta cell induction (stage 3 cultures, 3 day perturbation), INS induction; details: for factor contribution, induction of INS: Example 19, four HD-DoE panels, FIG. 20; for effect on INS induction: heat map FIG. 21, dynamic profiling FIGS. 22-25
Protocol: FIG. 18 HD-DoE screening for optimal de novo beta cell induction. Culture of the iPSC cell line CR01 were differentiated to a DFE state for 3 days. These cultures were then incubated in the presence of stage 2 media for an additional 3 days. These cultures were then incubated for an additional 5 days in the presence of GSI-XX and A8301 followed by a 3 day incubation in the presence of a perturbation matrix composed of the compounds indicated in the different panels. This was performed 3 separate times (once for each of the 3 panels). These HD-DoE experiments were then analyzed using MODDE software for maximal induction of insulin. The predicted results are shown.
FIG. 20 HD-DoE screening for optimal de novo beta cell induction. Cultures of the iPSC cell line CR01 were differentiated to a DFE state for 3 days. These cultures were then incubated in the presence of stage 2 media for an additional 3 days. These cultures were then incubated for an additional 5 days in the presence of GSI-XX and A8301 followed by a 3 day incubation in the presence of a perturbation matrix composed of the compounds indicated in the different panels. This was performed 4 separate times (once for each of the 4 panels). These HD-DoE experiments were then analyzed using MODDE software for the maximal induction of Insulin. The predicted results are shown.
as §3
To define factors contributing to the activation of INS, a series of HD-DoE perturbations were performed using factors chosen to target different aspects of beta cell biology.
To define factors contributing to the activation of INS, a series HD-DoE perturbations were performed using factors chosen to target different aspects of beta cell biology.

[4] = test system: GCG (alpha cell marker); assay: HD-DoE stage 3 screening, heat map and dynamic profiling: GCG; details: heat map FIG. 21, dynamic profiling FIGS. 22-25
Description: as §1, §2, §3

[5] = test system: SST (delta cell marker); assay: HD-DoE stage 3 screening, heat map and dynamic profiling: SST; details: heat map FIG. 21, dynamic profiling FIGS. 22-25
Description: as §1, §2, §3

| Molecule | factor contribution, induction of INS [3] | effect on INS induction [3] | effect on GCG induction / alpha cell fate [4] | effect on SST induction / delta cell fate [5] | also measured |
| --- | --- | --- | --- | --- | --- |
| COc1cc(O)c2c(c1)/C=C/C[C@H](O)[C@H](O)C(=O)/C=C\C[C@H](C)OC2=O [(5Z)-7-oxozeanol, (5Z)-7-Oxozeaenol] |  |  |  |  | factor contribution, PDX1 activation [1]: 8.2 |
| Clc1ccc(C2(c3ccc(-c4cn[nH]c4)cc3)CCNCC2)cc1 [AT7867] |  |  |  |  | factor contribution, PDX1 activation [1]: 15.5 |
| CC(C)Cn1c(=O)n(C)c(=O)c2[nH]cnc21 [IBMX] |  |  |  |  | effect on beta cell specific transcription factors / all genes optimized [2]: beneficial for all genes optimized |
| Nc1nc(OC(c2ccc(-c3cccc(F)c3)cc2)C(F)(F)F)cc(-c2ccc(C[C@H](N)C(=O)O)cc2)n1 (stereo partly drawn) [LP533401] | 10.7 | contributed to the induction of INS |  |  |  |
| Nc1nc(Nc2ccc3c(c2)CC[C@@H](N2CCCC2)CC3)nn1-c1cc2c(nn1)-c1ccccc1CCC2 [R248] | 22.9 |  |  |  | effect on beta cell state / endocrine fate [2]: strongest inducers of the beta cell state |
| Cc1nn(-c2ccccc2)c(C)c1/C=N/N1CCN(Cc2ccccc2)CC1 [SANT1] | 15.0 | stronger for INS induction | increased induction | increased induction | factor contribution, PDX1 activation [1]: 5.0; effect on beta cell state / endocrine fate [2]: increased induction of endocrine fates without total specificity towards the beta cell |
| CC(C)n1nc(C#Cc2ccccc2)c2c(N)ncnc21 [SPP86] | 4.8 | positive effect on INS induction, though with far less contribution |  |  |  |
| C/C(=C\c1ccc(C(=O)O)cc1)c1ccc2c(c1)C(C)(C)CCC2(C)C [TTNPB] | 12.7 |  | strongly inhibiting; also recorded: inhibitory | strongly inhibiting; also recorded: inhibitory | effect on beta cell state / endocrine fate [2]: strongest inducers of the beta cell state; effect on beta cell specific transcription factors / all genes optimized [2]: strongly activate all beta cell specific transcription factors |
| Clc1cccc(Cl)c1N=C1NCCN1 [clonidine] |  | contributed to the induction of INS |  |  | contribution factor, activation of INS ([3]; Example 17, three HD-DoE panels, FIG. 18): 23.4 |
| CC1=NS(=O)(=O)c2cc(Cl)ccc2N1 [diazoxide] |  | positively increased INS induction, though not significantly |  |  |  |
| C[C@H](N)C(=O)N[C@@H](CCC(N)=O)C(=O)O [glutamax] (H-Ala-Gln-OH) |  | stronger for INS induction | increased induction | increased induction | effect on beta cell state / endocrine fate [2]: preferentially favoring the beta cell fate, though to a lesser level; also recorded: positive inducer of endocrine fate; also recorded: increased induction of endocrine fates without total specificity towards the beta cell |
| NC(=O)CC[C@H](N)C(=O)O [glutamine] | 10.4 |  |  |  |  |
| CCC(=O)O [propionate] | 5.3 | significantly increased INS levels | inhibited | inhibited | effect on beta cell state / endocrine fate [2]: preferentially favoring the beta cell fate, though to a lesser level |
| CC1=C(/C=C/C(C)=C/C=C/C(C)=C/C(=O)O)C(C)(C)CCC1 [retinoic acid] |  |  |  |  | factor contribution, PDX1 activation [1]: 19.2 |
| CN(CCOc1ccc(CC2SC(=O)NC2=O)cc1)c1ccccn1 (stereo not drawn) [rosiglitazone] | 6.0 |  |  |  |  |
| NCCc1c[nH]c2ccc(O)cc12 [serotonin] |  |  | strongly activated GCG induction | inhibited SST induction |  |
| NCCc1c[nH]c2ccccc12 [tryptamine] | 21.2 | strongest INS inducing effects | no effect | no effect |  |
| FGF19: FGF pathway agonist |  | contributed to overall INS induction, but to a much smaller degree |  |  |  |
| obestatin | 9.6 | contributed to the induction of INS |  |  |  |
| Cardiotropin: factor tested in HD-DoE for INS induction (protein, UniProt Q16619 1-201, looked up) Cardiotrophin-1: MSRREGSLEDPQTDSSVSLLPHLEAKIRQTHSLAHLLTKYAEQLLQEYVQLQGDPFGLPSFSPPRLPVAGLSAPAPSHAGLPVHERLRLDAAALAALPPLLDAVCRRQAELNPRAPRLLRRLEDAARQARALGAAVEALLAALGAANRGPRAEPPAATASAASATGVFPAKVLGLRVCGLYREWLSRTEGDLGQLLPGGSA |  | positively increased INS induction, though not significantly |  |  |  |
